Measured values as given in patent US8933052B2, “Uracyl spirooxetane nucleosides” (Janssen Products, LP, priority 2009, dated 2015).
Like-named read-outs stand apart in the source and are kept apart here.

Legend:
HIV [1] = conditions: described in Org. Biomol. Chem., 2003, 3514-3526; cited from earlier work
[2] = Cytotoxicity in Huh-7 cells; format: cell-based; conditions: human
Excerpt: The in vitro antiviral activity against HCV of the compounds of formula I can be tested in a cellular HCV replicon system based on Lohmann et al. (1999) Science 285:110-113, with the further modifications described by Krieger et al. (2001) Journal of Virology 75: 4614-4624 (incorporated herein by reference), which is further exemplified in the examples section. This model, while not a complete infection model for HCV, is widely accepted as the most robust and efficient model of autonomous HCV RNA replication currently available. It will be appreciated that it is important to distinguish between compounds that specifically interfere with HCV functions from those that exert cytotoxic or cytostatic effects in the HCV replicon model, and as a consequence cause a decrease in HCV RNA or linked reporter enzyme concentration. Assays are known in the field for the evaluation of cellular cytotoxicity based for example on the activity of mitochondrial enzymes using fluorogenic redox dyes such as resazurin. Furthermore, cellular counter screens exist for the evaluation of non-selective inhibition of linked reporter gene activity, such as firefly luciferase. Appropriate cell types can be equipped by stable transfection with a luciferase reporter gene whose expression is dependent on a constitutively active gene promoter, and such cells can be used as a counter-screen to eliminate non-selective inhibitors. […]

HIV [3] = assay: HIV activity; format: cell-based; conditions: Human immunodeficiency virus 1, read-out: EC50 (μM) (HIV)
Excerpt: (§1) Also the HIV activity is given (EC50 HIV (μM)) and the cellular toxicity in the HIV cell-line (CC50 (μM) (MT-4)).

[4] = Cellular toxicity in the HIV cell-line MT-4; format: cell-based; conditions: human, MT-4 cells, read-out: CC50 (μM) (MT4)
Excerpt: as §1

HCV type 1b replicon = assay: HCV replicon assay (Huh-Luc cells, luciferase readout); format: cell-based; conditions: Hepatitis C virus, 72 h, read-out: EC50 (μM) (HCV)
Excerpt: The in vitro antiviral activity against HCV of the compounds of formula I can be tested in a cellular HCV replicon system based on Lohmann et al. (1999) Science 285:110-113, with the further modifications described by Krieger et al. (2001) Journal of Virology 75: 4614-4624 (incorporated herein by reference), which is further exemplified in the examples section. This model, while not a complete infection model for HCV, is widely accepted as the most robust and efficient model of autonomous HCV RNA replication currently available. It will be appreciated that it is important to distinguish between compounds that specifically interfere with HCV functions from those that exert cytotoxic or cytostatic effects in the HCV replicon model, and as a consequence cause a decrease in HCV RNA or linked reporter enzyme concentration. Assays are known in the field for the evaluation of cellular cytotoxicity based for example on the activity of mitochondrial enzymes using fluorogenic redox dyes such as resazurin. Furthermore, cellular counter screens exist for the evaluation of non-selective inhibition of linked reporter gene activity, such as firefly luciferase. Appropriate cell types can be equipped by stable transfection with a luciferase reporter gene whose expression is dependent on a constitutively active gene promoter, and such cells can be used as a counter-screen to eliminate non-selective inhibitors.
The compounds of formula I were examined for activity in the inhibition of HCV-RNA replication in a cellular assay. […] The cellular assay was based on a bicistronic expression construct, as described by Lohmann et al. (1999) Science vol. 285 pp. 110-113 with modifications described by Krieger et al. (2001) Journal of Virology 75: 4614-4624, in a multi-target screening strategy.
In essence, the method was as follows. The assay utilized the stably transfected cell line Huh-7 luc/neo (hereafter referred to as Huh-Luc). This cell line harbors an RNA encoding a bicistronic expression construct comprising the wild type NS3-NS5B regions of HCV type 1b translated from an internal ribosome entry site (IRES) from encephalomyocarditis virus (EMCV), preceded by a reporter portion (FfL-luciferase), and a selectable marker portion (neo^R, neomycine phosphotransferase). The construct is bordered by 5′ and 3′ NTRs (non-translated regions) from HCV genotype 1b. Continued culture of the replicon cells in the presence of G418 (neo^R) is dependent on the replication of the HCV-RNA. The stably transfected replicon cells that express HCV-RNA, which replicates autonomously and to high levels, encoding inter alia luciferase, were used for screening the antiviral compounds.
The replicon cells were plated in 384-well plates in the presence of the test and control compounds which were added in various concentrations. Following an incubation of three days, HCV replication was measured by assaying luciferase activity (using standard luciferase assay substrates and reagents and a Perkin Elmer ViewLux™ ultraHTS microplate imager). Replicon cells in the control cultures have high luciferase expression in the absence of any inhibitor. The inhibitory activity of the compound on luciferase activity was monitored on the Huh-Luc cells, enabling a dose-response curve for each test compound. EC50 values were then calculated, which value represents the amount of the compound required to decrease the level of detected luciferase activity by 50%, or more specifically, the ability of the genetically linked HCV replicon RNA to replicate.

[5] = Huh-Luc replicon cells, HCV type 1b, three days incubation, luciferase activity

For `Cc1cn([C@@H]2O[C@H](CO)[C@@H](O)[C@]23CCO3)c(=O)[nH]c1=O` [1-(2-O,2-C-ethano-β-D-ribofuranosyl)thymine], the “activity against HIV” value (HIV [1]) is listed as “no activity”.

For `O=c1ccn([C@@H]2O[C@H](CO)[C@@H](O)[C@]23CCO3)c(=O)[nH]1` [1-(2-O,2-C-ethano-β-D-ribofuranosyl)uracil], the “activity against HIV” value (HIV [1]) is listed as “no activity”.

In the case of `CC[C@H](NP(=O)(OC[C@H]1O[C@@H](n2ccc(=O)[nH]c2=O)[C@@]2(CCO2)[C@@H]1O)Oc1ccccc1)C(=O)OCc1ccccc1` (stereo partly drawn) [Compound 12a], the CC50 [2] is reported as > 98 µM, the EC50 (HIV [3]) is reported as > 98 µM and the CC50 [4] is reported as > 98 µM. The EC50 (HCV type 1b replicon; [5]) was 3.4 µM.

In the case of `C[C@H](NP(=O)(OC[C@H]1O[C@@H](n2ccc(=O)[nH]c2=O)[C@@]2(CCO2)[C@@H]1O)Oc1ccccc1)C(=O)OCc1ccccc1` (stereo partly drawn) [Compound 12b], the CC50 [2] is reported as > 98 µM, the EC50 (HIV [3]) is reported as > 98 µM and the CC50 [4] is reported as > 98 µM. The EC50 (HCV type 1b replicon; [5]) was 3.7 µM.

With `C[C@H](NP(=O)(OC[C@H]1O[C@@H](n2ccc(=O)[nH]c2=O)[C@@]2(CCO2)[C@@H]1O)Oc1ccccc1)C(=O)OCC(C)(C)C` (stereo partly drawn) [Compound 12c] the CC50 [2] was > 98 µM, the EC50 (HIV [3]) was > 98 µM and the CC50 [4] was > 98 µM. It also gave an EC50 (HCV type 1b replicon; [5]) of 5.6 µM.

With `CCCCOC(=O)[C@H](C)NP(=O)(OC[C@H]1O[C@@H](n2ccc(=O)[nH]c2=O)[C@@]2(CCO2)[C@@H]1O)Oc1ccccc1` (stereo partly drawn) [Compound 12d] the CC50 [2] was > 98 µM, the EC50 (HIV [3]) was > 98 µM and the CC50 [4] was > 98 µM. It also gave an EC50 (HCV type 1b replicon; [5]) of 5.5 µM.

In the case of `COC(=O)C(C)(C)NP(=O)(OC[C@H]1O[C@@H](n2ccc(=O)[nH]c2=O)[C@@]2(CCO2)[C@@H]1O)Oc1ccccc1` (stereo partly drawn) [Compound 12e, methyl 2-[[[(4R,5R,7R,8R)-5-(2,4-dioxo-3,4-dihydropyrimidin-1(2H)-yl)-8-hydroxy-1,6-dioxaspiro[3.4]octan-7-yl]methoxy](phenoxy)phosphorylamino]-2-methylpropanoate], the CC50 [2] is reported as > 98 µM, the EC50 (HIV [3]) is reported as > 98 µM and the CC50 [4] is reported as > 98 µM. The EC50 (HCV type 1b replicon; [5]) was 23.4 µM.

In the case of `Cc1ccc(C(C)C)c(OP(=O)(N[C@@H](C)C(=O)OCc2ccccc2)OC[C@H]2O[C@@H](n3ccc(=O)[nH]c3=O)[C@@]3(CCO3)[C@@H]2O)c1` (stereo partly drawn) [Compound 12f], the CC50 [2] is reported as 18.7 µM, the EC50 (HIV [3]) is reported as > 98 µM and the CC50 [4] is reported as 1.3 µM. For the same molecule, the EC50 (HCV type 1b replicon; [5]) was 8.7 µM.

For `CC(C)OC(=O)[C@H](C)NP(=O)(OC[C@H]1O[C@@H](n2ccc(=O)[nH]c2=O)[C@@]2(CCO2)[C@@H]1O)Oc1ccccc1` (stereo partly drawn) [Compound 12g], the CC50 [2] was > 98 µM, the EC50 (HIV [3]) was > 98 µM and the CC50 [4] was > 98 µM. It also gave an EC50 (HCV type 1b replicon; [5]) of 17.8 µM.

With `O=C(OCc1ccccc1)[C@@H](NP(=O)(OC[C@H]1O[C@@H](n2ccc(=O)[nH]c2=O)[C@@]2(CCO2)[C@@H]1O)Oc1ccccc1)c1ccccc1` (stereo partly drawn) [Compound 12h] the CC50 [2] was > 88 µM, the EC50 (HIV [3]) was > 98 µM and the CC50 [4] was > 98 µM. It also gave an EC50 (HCV type 1b replicon) of 79.6 µM.

For `CC[C@H](NP(=O)(OC[C@H]1O[C@@H](n2ccc(=O)[nH]c2=O)[C@@]2(CCO2)[C@@H]1O)Oc1ccccc1)C(=O)OC(C)C` (stereo partly drawn) [Compound 12i], the CC50 [2] was > 98 µM, the EC50 (HIV [3]) was > 98 µM and the CC50 [4] was > 98 µM. For the same molecule, the EC50 (HCV type 1b replicon; [5]) was > 96 µM.

With `C[C@H](NP(=O)(OC[C@H]1O[C@@H](n2ccc(=O)[nH]c2=O)[C@@]2(CCO2)[C@@H]1O)Oc1ccc(Cl)cc1)C(=O)OCc1ccccc1` (stereo partly drawn) [Compound 12j] the CC50 [2] was > 98 µM, the EC50 (HIV [3]) was > 98 µM and the CC50 [4] was > 98 µM. It also gave an EC50 (HCV type 1b replicon; [5]) of 0.7 µM.

For `C[C@H](NP(=O)(OC[C@H]1O[C@@H](n2ccc(=O)[nH]c2=O)[C@@]2(CCO2)[C@@H]1O)Oc1cccc2ccccc12)C(=O)OCc1ccccc1` (stereo partly drawn) [Compound 12k], the CC50 [2] was > 98 µM, the EC50 (HIV [3]) was > 76.9 µM and the CC50 [4] was > 98 µM. It also gave an EC50 (HCV type 1b replicon; [5]) of 2 µM.

For `CC(C)COC(=O)[C@H](C)NP(=O)(OC[C@H]1O[C@@H](n2ccc(=O)[nH]c2=O)[C@@]2(CCO2)[C@@H]1O)Oc1ccccc1` (stereo partly drawn) [Compound 12l], the CC50 [2] was > 98 µM, the EC50 (HIV [3]) was > 98 µM and the CC50 [4] was > 98 µM. It also gave an EC50 (HCV type 1b replicon; [5]) of 0.44 µM.

In the case of `O=C(CNP(=O)(OC[C@H]1O[C@@H](n2ccc(=O)[nH]c2=O)[C@@]2(CCO2)[C@@H]1O)Oc1ccc(Cl)cc1)OCc1ccccc1` (stereo partly drawn) [Compound 12m], the CC50 [2] is reported as > 98 µM, the EC50 (HIV [3]) is reported as > 98 µM and the CC50 [4] is reported as > 98 µM. For the same molecule, the EC50 (HCV type 1b replicon; [5]) was 7.17 µM.
